Our source for the AC35 values is PubChem BioAssay AID720589 (Broad Institute, 2013).

Molecules are shown by their SMILES.

For the assay, the system named is HepG2 viability, ATP luminescence (CellTiter-Glo), 72 h. As to the kind of experiment: ATP-based viability loss in HepG2 cells – cell-based, CellTiter-Glo luminescence, cherry-pick, set 3, cytotoxicity control, dose response (AID 720589).
For the compound `C[C@]12CCC3C(CCC4=CC(O)CC[C@@]43/C=N/O)C1(O)CCC2C1=CC(=O)OC1` (stereo partly drawn), the AC35 is 1.57 µM.
The result for `COc1ccc(OC)c(Cc2cnc3nc(N)nc(N)c3c2C)c1` reads 0.0574 µM; that for `C[C@@H]1CN([C@@H](C)CO)C(=O)c2cc(NS(=O)(=O)c3ccc(Cl)cc3)ccc2O[C@@H]1CN(C)Cc1ccc(C(=O)Nc2ccccc2N)cc1`, 9.68 µM.
On to `C[C@@H]1CN([C@@H](C)CO)C(=O)c2cc(NS(=O)(=O)c3ccc(F)cc3)ccc2O[C@@H]1CN(C)Cc1ccc(C(=O)Nc2ccccc2N)cc1`, for which the AC35 was 0.354 µM.
The result for `C[C@H]1O[C@@H](O[C@H]2[C@@H](O)C[C@H](O[C@H]3[C@@H](O)C[C@H](O[C@H]4CC[C@@]5(C)[C@H](CC[C@@H]6[C@@H]5C[C@@H](O)[C@]5(C)[C@@H](C7=CC(=O)OC7)CC[C@]65O)C4)O[C@@H]3C)O[C@@H]2C)C[C@H](O)[C@@H]1O` reads 0.155 µM.
The result for `COc1ccc(NC(=O)N2CCCCN3[C@H](CO)[C@H](c4ccc(C#CCC(C)C)cc4)[C@H]3C2)cc1` reads 8.68 µM; that for `CN1C(=O)c2cc(NC(=O)c3ccc(C(F)(F)F)cc3)ccc2OC[C@@H]2O[C@@H](CC(=O)NC3Cc4ccccc4C3)CC[C@H]21`, 7.45 µM.
Turning to `C[C@@H]1CN([C@@H](C)CO)C(=O)c2cccc(NS(=O)(=O)c3ccccc3)c2O[C@@H]1CN(C)Cc1ccc(C(=O)Nc2ccccc2N)cc1`, the AC35 was 2.11 µM.
The result for `C[C@@H]1CN([C@H](C)CO)C(=O)c2cc(C#CCN(C)C)cnc2O[C@H]1CN(C)Cc1ccc(-c2ccccc2)cc1` reads 2.79 µM.
For the compound `COc1ccc(CC(N)c2csc(NC(=O)Nc3cccc(C(F)(F)F)c3)n2)cc1` (stereo not drawn), the AC35 was 6.15 µM.
For `CN(C)CC1CCC/C(=C\c2ccc(OC(=O)c3ccc(Cl)cc3)cc2)C1=O` (stereo not drawn), the AC35 was 9.84 µM.
`OCC1OC(n2cnc3c(NCc4ccco4)ncnc32)C(O)C1O` (stereo not drawn): the AC35 was 3.82 µM.
To `N#CC(C#N)=C1C=CC=CN1/C(=C\c1ccco1)C(=O)c1ccc(Cl)cc1` belongs 11.2 µM; to `C=CCOC(=O)c1sc(NC(=O)c2ccc(OC)cc2)nc1C`, 6.33 µM; to `COc1ccc(/C=C/C(=O)c2ccc(C(=O)/C=C/c3ccc(OC)c(OC)c3)cc2)cc1OC`, 15.1 µM.
For `C=C1C(=O)[C@@]23[C@H](O)C[C@@H]4C(C)(C)CC[C@H](O)[C@@]4(C)[C@@H]2CC[C@@H]1[C@H]3O`, the AC35 is 15.3 µM.
Regarding `CCCN1C/C(=C/c2ccc3c(c2)OCO3)C(=O)/C(=C/c2ccc3c(c2)OCO3)C1`, the AC35 was 12.5 µM.
As for `O=C(Nc1ccc(Br)cc1)c1ccc(F)c(S(=O)(=O)N2CCN(c3ccccn3)CC2)c1`, the AC35 was 2.69 µM.
To `CC[C@@H]1C[C@H]2CC[C@H](O2)[C@H](C)C(=O)O[C@@H](C)C[C@@H]2CC[C@@H](O2)[C@@H](C)C(=O)O[C@H](C)C[C@H]2CC[C@H](O2)[C@H](C)C(=O)O[C@@H](C)C[C@@H]2CC[C@@H](O2)[C@@H](C)C(=O)O1` belongs 0.506 µM; to `C[C@H]1CN([C@@H](C)CO)C(=O)c2cccc(NC(=O)c3ccc(-c4nccs4)cc3)c2O[C@@H]1CN(C)Cc1ccc(C(=O)Nc2ccccc2N)cc1`, 4.1 µM; to `C[C@@H]1CN([C@@H](C)CO)C(=O)Cc2cc(NS(=O)(=O)c3cccs3)ccc2O[C@H]1CN(C)Cc1ccc(Cl)c(Cl)c1`, 0.901 µM.
To `C[C@@H]1CN([C@@H](C)CO)C(=O)c2cccc(NC(=O)CCCCCC(=O)Nc3ccccc3N)c2O[C@@H]1CN(C)Cc1ccc(Oc2ccccc2)cc1` belongs 0.458 µM; to `Cc1noc(C)c1NC(=O)Nc1ccc2c(c1)CC(=O)N([C@H](C)CO)C[C@@H](C)[C@@H](CN(C)Cc1ccc(Cl)c(Cl)c1)O2`, 7.54 µM; to `Nc1nc(N)c2c(ccc3nccc32)[nH]1`, 4.84 µM.
In the case of `O=C(NC[C@@H]1N[C@@H](CO)[C@H]1c1ccc(C2=CCCCC2)cc1)c1cccc(F)c1`, the AC35 was 7.71 µM.
The result for `O=C(O)c1ccc(N/N=C/c2ccc3c(c2)OCO3)cc1` reads 5.97 µM; that for `C[C@@H]1O[C@@H](O[C@@H]2C=C3CC[C@@H]4C(CC[C@]5(C)[C@@H](c6ccc(=O)oc6)CC[C@]45O)[C@@]3(C)CC2)[C@H](O)[C@H](O)[C@H]1O` (stereo partly drawn), 0.0735 µM; that for `Cc1cccc(/C=C(\c2nc3ccccc3[nH]2)S(=O)(=O)c2ccccc2)c1`, 10.7 µM.
To `COC(=O)Cc1[nH]n(-c2nc3ccccc3s2)c(=O)c1C(C)=Nc1ccc(C)cc1` belongs 17.8 µM; to `C[C@@H]1CN([C@@H](C)CO)C(=O)Cc2cc(N(C)C)ccc2O[C@H]1CN(C)Cc1ccc(C(=O)Nc2ccccc2N)cc1`, 2.38 µM; to `CN1C/C(=C/c2ccsc2)C(=O)/C(=C/c2ccsc2)C1`, 13.7 µM.
Take `C[C@H](CO)N1C[C@H](C)[C@H](CN(C)CC2CCCCC2)Oc2ccc(NC(=O)CCCCCC(=O)Nc3ccccc3N)cc2CC1=O`: the AC35 is 0.219 µM.
To `CC(=O)OC1CC(OC2C(O)CC(OC3C(O)CC(OC4CCC5(C)C(CCC6C5CCC5(C)C(C7=CC(=O)OC7)CCC65O)C4)OC3C)OC2C)OC(C)C1OC1OC(CO)C(O)C(O)C1O` (stereo not drawn) belongs 0.0996 µM; to `COC(=O)C[C@@H]1CC[C@H]2[C@H](COc3ccc(NC(=O)Nc4ccc(C#N)cc4)cc3C(=O)N2C)O1`, 4.2 µM.
In the case of `Oc1c(C(c2ccc(Cl)cc2)N2CCCC2)cc(Cl)c2cccnc12` (stereo not drawn), the AC35 is 17.3 µM.
With `O=C1NC(=O)N(Cc2ccccc2)C(=O)/C1=C\C=C\c1ccco1`, the AC35 is 5.18 µM.
Turning to `C[C@H]1CN([C@@H](C)CO)C(=O)Cc2cc(NC(=O)CCC(F)(F)F)ccc2O[C@H]1CN(C)Cc1ccc(C(=O)Nc2ccccc2N)cc1`, the AC35 was 2.13 µM.
As for `C[C@@H]1CN([C@H](C)CO)C(=O)c2cc(NC(=O)Nc3ccccc3)ccc2O[C@@H]1CN(C)Cc1ccc(C(=O)Nc2ccccc2N)cc1`, the AC35 is 8.38 µM.
To `C[C@@H]1CN([C@H](C)CO)C(=O)c2cc(NC(=O)c3ccccc3)ccc2O[C@@H](C)CCCCO[C@H]1CN(C)C(=O)Nc1cccc2ccccc12` belongs 1.54 µM; to `Oc1[nH]c2ccc(Br)cc2c1N=NC(=S)N1CCOCC1`, 2.9 µM.
The result for `Nc1ccc(-c2cc3ccccc3oc2=O)cc1` reads 2.42 µM; that for `O=C(Nc1ccc(F)cc1)N1CCCCN2[C@@H](CO)[C@H](c3ccc(C4=CCCCC4)cc3)[C@@H]2C1`, 8.45 µM.
The result for `CCc1cccc2c(C(=O)CN3C(=O)NC4(CCCCC4)C3=O)c[nH]c12` reads 8.59 µM; that for `CCc1nc(N)nc(N)c1-c1ccc(Cl)c(N=[N+]=[N-])c1`, 5 µM.
Take `COc1ccc(Cn2cc3c(-c4ccc(F)cc4)nnc-3c3cc(OC)c(OC)cc32)cc1`: the AC35 is 10.6 µM.
To `OC[C@H]1[C@@H](c2ccc(C#CC3CCCC3)cc2)[C@@H]2CN(CCC(F)(F)F)CCCCN12` belongs 9.23 µM; to `CC(=O)OC1CC(OC2C(O)CC(OC3C(O)CC(OC4CCC5(C)C(CCC6C5CC(O)C5(C)C(C7=CC(=O)OC7)CCC65O)C4)OC3C)OC2C)OC(C)C1OC1OC(CO)C(O)C(O)C1O` (stereo not drawn), 0.285 µM; to `Cc1ccc(S(=O)(=O)Nc2ccc3c(c2)C(=O)N([C@@H](C)CO)C[C@H](C)[C@@H](CN(C)Cc2ccc(C(F)(F)F)cc2)OCCCC[C@@H](C)O3)cc1`, 13.2 µM.
